Reference: PubChem BioAssay (NCI)
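In this assay, cells in 96-well plates receive the compound at five concentrations for 48 hours. Endpoints are linearly interpolated between the surrounding concentrations. TGI is the concentration that stops growth completely.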

How the values were obtained:
Assay in all cases: DTP human tumour cell line panel, 48 h
[1] = system: SNB-19 CNS
[2] = system: TK-10 renal
[3] = system: 786-0 renal
[4] = system: HOP-62 NSCLC
[5] = system: OVCAR-5 ovarian
[6] = system: MALME-3M melanoma
[7] = system: CCRF-CEM leukemia
[8] = system: MDA-MB-231 breast
[9] = system: K-562 leukemia
[10] = system: MCF7 breast
[11] = system: KM12 colon
[12] = system: ACHN renal
[13] = system: SN12C renal
[14] = system: HCC-2998 colon
[15] = system: NCI/ADR-RES ovarian
[16] = system: RPMI-8226 leukemia
[17] = system: NCI-H226 lung
[18] = system: A498 renal
[19] = system: MDA-N
[20] = system: MDA-MB-435
[21] = system: HT29 colon
[22] = system: LOX IMVI melanoma
[23] = system: SF-295 CNS
[24] = system: RXF 393 renal
[25] = system: M14 melanoma
[26] = system: HOP-92 NSCLC
[27] = system: BT-549 breast
[28] = system: OVCAR-8 ovarian
[29] = system: SK-MEL-2 melanoma
[30] = system: SK-OV-3 ovarian
[31] = system: COLO 205 colon
[32] = system: MOLT-4 leukemia
[33] = system: U251 CNS
[34] = system: NCI-H522 lung
[35] = system: PC-3 prostate
[36] = system: OVCAR-4 ovarian
[37] = system: SW-620 colon
[38] = system: NCI-H460 lung
[39] = system: SNB-75 CNS
[40] = system: UACC-62 melanoma
[41] = system: EKVX NSCLC
[42] = system: HCT-116 colon
[43] = system: SK-MEL-28 melanoma
[44] = system: SK-MEL-5 melanoma
[45] = system: HCT-15 colon
[46] = system: A549 NSCLC
[47] = system: IGROV1 ovarian
[48] = system: CAKI-1 renal
[49] = system: SF-268 CNS
[50] = system: UACC-257 melanoma
[51] = system: SF-539 CNS
[52] = system: NCI-H23 lung
[53] = system: OVCAR-3 ovarian
[54] = system: HL-60(TB) leukemia
[55] = system: UO-31 renal
[56] = system: HS 578T breast
[57] = system: T-47D breast
[58] = system: DU-145 prostate
[59] = system: SR leukemia

Measured: TGI

Cc1ccc(-c2c(C#N)c(-c3ccccc3)n(NS(=O)(=O)c3ccccc3)c(=O)c2C#N)cc1
> 100 µM: [1] | [2] | [3] | [4] | [5] | [6] | [7] | [8] | [9] | [10] | [11] | [12] | [13] | [14] | [15] | [17] | [18] | [19] | [20] | [21] | [22] | [23] | [24] | [25] | [26] | [27] | [28] | [29] | [30] | [31] | [33] | [34] | [35] | [36] | [37] | [38] | [39] | [40] | [41] | [42] | [43] | [44] | [45] | [46] | [47] | [48] | [49] | [50] | [51]
55.3 µM: [16]
72.6 µM: [32]

O=C1NNC=Nc2ccc(cc2)S(=O)(=O)c2ccc(cc2)N=CNNC1=O
> 100 µM: [1] | [2] | [3] | [4] | [5] | [52] | [8] | [9] | [10] | [11] | [12] | [13] | [14] | [15] | [53] | [17] | [18] | [19] | [20] | [21] | [54] | [22] | [23] | [55] | [24] | [25] | [56] | [26] | [27] | [57] | [28] | [29] | [30] | [31] | [32] | [33] | [34] | [35] | [36] | [37] | [38] | [40] | [41] | [42] | [43] | [44] | [45] | [46] | [47] | [48] | [58] | [49] | [50] | [51]

CC1(C)OCC(COC(=O)C=[N+]=[N-])O1 (centres undefined)
> 100 µM: [1] | [2] | [3] | [4] | [5] | [6] | [7] | [52] | [8] | [10] | [11] | [12] | [13] | [14] | [59] | [53] | [16] | [17] | [18] | [19] | [20] | [21] | [54] | [22] | [23] | [55] | [24] | [26] | [27] | [29] | [30] | [31] | [32] | [33] | [34] | [35] | [36] | [37] | [38] | [40] | [41] | [42] | [43] | [44] | [45] | [47] | [48] | [58] | [49] | [50]

CCN1CC2=C(NC(=S)NC2c2ccc(Cl)cc2)/C(=C/c2ccc(Cl)cc2)C1 (centres undefined)
62.1 µM: [18]
79.2 µM: [32]
45.8 µM: [38]
87.7 µM: [7]
> 100 µM: [1] | [2] | [3] | [4] | [5] | [6] | [52] | [8] | [9] | [10] | [11] | [12] | [14] | [15] | [53] | [17] | [19] | [20] | [21] | [54] | [22] | [23] | [55] | [24] | [25] | [56] | [27] | [28] | [29] | [30] | [31] | [33] | [34] | [35] | [36] | [37] | [39] | [40] | [41] | [42] | [43] | [44] | [45] | [46] | [47] | [48] | [58] | [49] | [50]
90.9 µM: [16]
